Laboratory results as given in patent US10829796B2, “Bacteria identification and antimicrobial susceptibility test” (priority 2015, dated 2020).

Tested on: bacteria in clinical bovine mastitis milk samples
Assay: Combined bacteria identification and antimicrobial susceptibility test (colour of wells, MIC) on clinical bovine mastitis milk samples
Format: cell-based
Method: Clinical bovine mastitis milk samples were collected by a vet clinic in South Island, New Zealand. Samples were stored in the freezer for several months and shipped frozen to the testing facility. In this Example, the term “clinical” means that dairy cows had clinical symptoms of an udder infection e.g. cow behaved unusual, milk clots, swollen udder among other typical symptoms. Testing was executed in microwell plate comprising of 24 wells (3×8 wells).
In addition, 20 ul of clinical mastitis sample was added to each well with a laboratory pipette.
Abbreviations • 1. 80 ul GC+10 ul Tell: 80 ul Giolitti Cantoni base broth+10 ul Tellurite solution (1%); • 2. 80 ul TSB/Esc/Fer Cit: 80 ul Tryptic soy broth containing 0.25% Esculin and 0.125% Ammonium Ferric Citrate; • 3. 80 ul TSB/Esc/Fer Cit+10 ul Genta: 80 ul Tryptic soy broth containing 0.25% Esculin and 0.125% Ammonium Ferric Citrate+10 ul of Gentamycin solution 10 mg/ml; • 4. 80 ul McC/PR25: 80 ul MacConkey broth (single strength) containing 0.0125% phenol red; and • 5. 80 ul TSB/PR25: 80 ul Tryptic soy broth containing 0.0125% phenol red. Bacteria Identification
Columns A to C and rows 1 and 2 were used for bacteria identification. A1: coagulase positive Staph; A2: Staphylococci; B1: Strep group D; B2: Strep group D; C1: general enrichment media (gram+ and gram-bacteria); C2: coliform bacteria.
Column A3 to A8: serial dilution of benzyl penicillin as potassium. Column B3 to B8: serial dilution of ceftiofur as hydrochloride. Column C3 to C8: serial dilution of cloxacillin as sodium. Antibiotic concentrations are listed as free form ranging between 4 ug/ml to 0.05 ug/ml.
Minimum inhibitory substance concentration (MIC) is here defined as the concentration if a colour change occurs between two wells (one well remains red with drug concentration 1, the other one yellow with drug concentration 2, whereas drug concentration 1 is larger than drug concentration 2) then the MIC is the value of drug concentration 1.
Table 21 indicates the microwell plate configuration #1; Drugs: Benzylpenicillin as potassium; Cloxacillin as sodium; Ceftiofur as hydrochloride; Drug concentration in each well (A3 to C8) is based on 80 μl composition+10 μl drug solution+20 μl clinical mastitis milk sample and equivalent to listed drug concentration in μg/ml; 20 ul of clinical bovine mastitis milk sample was added to each well (A1 to C8).
In addition, each well received one drop of clinical sample from a transfer pipette which was on average about 35 mg. This was determined through weighing the well plate prior and after the addition of clinical mastitis samples. This weight was then divided by 24.
• 1. 80 ul GC+10 ul Tell: 80 ul Giolitti Cantoni base broth+10 ul Tellurite solution (1%); • 2. 80 ul TSB/Esc/Fer Cit: 80 ul Tryptic soy broth containing 0.25% Esculin and 0.125% Ammonium Ferric Citrate; • 3. 80 ul TSB/Esc/Fer Cit+10 ul Genta: 80 ul Tryptic soy broth containing 0.25% Esculin and 0.125% Ammonium Ferric Citrate+10 ul of Gentamycin solution 10 mg/ml; • 4. 80 ul McC/PR25: 80 ul MacConkey broth (single strength) containing 0.0125% phenol red; and • 5. 80 ul TSB/PR25: 80 ul Tryptic soy broth containing 0.0125% phenol red.
Columns A to C and rows 1 and 2 were used for bacteria identification. A1: coagulase positive Staph; A2: Staphylococci; B1: Strep Group D; B2: -; C1: general enrichment media (gram+ and gram-); C2: coliform bacteria.
Column A3 to A8: serial dilution of benzyl penicillin as potassium. Drug concentrations given as free form ranging between 4 ug/ml to 0.05 ug/ml. Column B3 to B8: serial dilution of ceftiofur as hydrochloride. Drug concentrations given as free form ranging between 4 ug/ml to 0.05 ug/ml. Column C3 to C8: serial dilution of cloxacillin as sodium. Drug concentrations given as free form ranging between 4 ug/ml to 0.05 ug/ml.

Cc1onc(-c2ccccc2Cl)c1C(=O)N[C@@H]1C(=O)N2[C@@H]1SC(C)(C)[C@@H]2C(=O)O [cloxacillin]
Colour of media in each well (ID 1, T = 22 h, 37° C., plate configuration #1, drug 0.05 μg/ml): yellow | Colour of media in each well (ID 1, T = 22 h, 37° C., plate configuration #1, drug 0.1 μg/ml): yellow | Colour of media in each well (ID 1, T = 22 h, 37° C., plate configuration #1, drug 0.5 μg/ml): red | Colour of media in each well (ID 1, T = 22 h, 37° C., plate configuration #1, drug 1 μg/ml): red | Colour of media in each well (ID 1, T = 22 h, 37° C., plate configuration #1, drug 2 μg/ml): red | Colour of media in each well (ID 1, T = 22 h, 37° C., plate configuration #1, drug 4 μg/ml): red | Colour of media in each well (ID 2, T = 48 h, 37° C., plate configuration #1, drug 0.05 μg/ml): yellow | Colour of media in each well (ID 2, T = 48 h, 37° C., plate configuration #1, drug 0.1 μg/ml): yellow | Colour of media in each well (ID 2, T = 48 h, 37° C., plate configuration #1, drug 0.5 μg/ml): red | Colour of media in each well (ID 2, T = 48 h, 37° C., plate configuration #1, drug 1 μg/ml): red | Colour of media in each well (ID 2, T = 48 h, 37° C., plate configuration #1, drug 2 μg/ml): red | Colour of media in each well (ID 2, T = 48 h, 37° C., plate configuration #1, drug 4 μg/ml): red | Colour of media in each well (ID 3, T = 22 h, 37° C., plate configuration #1, drug 0.05 μg/ml): yellow | Colour of media in each well (ID 3, T = 22 h, 37° C., plate configuration #1, drug 0.1 μg/ml): yellow | Colour of media in each well (ID 3, T = 22 h, 37° C., plate configuration #1, drug 0.5 μg/ml): red | Colour of media in each well (ID 3, T = 22 h, 37° C., plate configuration #1, drug 1 μg/ml): red | Colour of media in each well (ID 3, T = 22 h, 37° C., plate configuration #1, drug 2 μg/ml): yellow | Colour of media in each well (ID 3, T = 22 h, 37° C., plate configuration #1, drug 4 μg/ml): yellow | Colour of media in each well (ID 3, T = 23 h, 37° C., Table 34, drug 0.05 μg/ml): yellow | Colour of media in each well (ID 3, T = 23 h, 37° C., Table 34, drug 0.1 μg/ml): yellow | Colour of media in each well (ID 3, T = 23 h, 37° C., Table 34, drug 0.5 μg/ml): red | Colour of media in each well (ID 3, T = 23 h, 37° C., Table 34, drug 1 μg/ml): red | Colour of media in each well (ID 3, T = 23 h, 37° C., Table 34, drug 2 μg/ml): yellow | Colour of media in each well (ID 3, T = 23 h, 37° C., Table 34, drug 4 μg/ml): yellow | Colour of media in each well (ID 3, T~7 h, 37° C., Table 34, drug 0.05 μg/ml): red | Colour of media in each well (ID 3, T~7 h, 37° C., Table 34, drug 0.1 μg/ml): red | Colour of media in each well (ID 3, T~7 h, 37° C., Table 34, drug 0.5 μg/ml): red | Colour of media in each well (ID 3, T~7 h, 37° C., Table 34, drug 1 μg/ml): red | Colour of media in each well (ID 3, T~7 h, 37° C., Table 34, drug 2 μg/ml): red | Colour of media in each well (ID 3, T~7 h, 37° C., Table 34, drug 4 μg/ml): red | Colour of media in each well (ID 3, T~11 h, 37° C., Table 34, drug 0.05 μg/ml): red | Colour of media in each well (ID 3, T~11 h, 37° C., Table 34, drug 0.1 μg/ml): red | Colour of media in each well (ID 3, T~11 h, 37° C., Table 34, drug 0.5 μg/ml): red | Colour of media in each well (ID 3, T~11 h, 37° C., Table 34, drug 1 μg/ml): red | Colour of media in each well (ID 3, T~11 h, 37° C., Table 34, drug 2 μg/ml): red | Colour of media in each well (ID 3, T~11 h, 37° C., Table 34, drug 4 μg/ml): red | Colour of media in each well (ID 4, T = 22 h, 37° C., plate configuration #1, drug 0.05 μg/ml): yellow | Colour of media in each well (ID 4, T = 22 h, 37° C., plate configuration #1, drug 0.1 μg/ml): yellow | Colour of media in each well (ID 4, T = 22 h, 37° C., plate configuration #1, drug 0.5 μg/ml): red | Colour of media in each well (ID 4, T = 22 h, 37° C., plate configuration #1, drug 1 μg/ml): red | Colour of media in each well (ID 4, T = 22 h, 37° C., plate configuration #1, drug 2 μg/ml): red | Colour of media in each well (ID 4, T = 22 h, 37° C., plate configuration #1, drug 4 μg/ml): red | Colour of media in each well (ID 5, T = 23 h, 37° C., plate configuration #2, drug 0.05 μg/ml): yellow | Colour of media in each well (ID 5, T = 23 h, 37° C., plate configuration #2, drug 0.1 μg/ml): yellow | Colour of media in each well (ID 5, T = 23 h, 37° C., plate configuration #2, drug 0.5 μg/ml): red | Colour of media in each well (ID 5, T = 23 h, 37° C., plate configuration #2, drug 1 μg/ml): red | Colour of media in each well (ID 5, T = 23 h, 37° C., plate configuration #2, drug 2 μg/ml): red | Colour of media in each well (ID 5, T = 23 h, 37° C., plate configuration #2, drug 4 μg/ml): red | Colour of media in each well (ID 5 to 8, T = 0 h (prior incubation, reference), plate configuration #2, drug 0.05 μg/ml): red | Colour of media in each well (ID 5 to 8, T = 0 h (prior incubation, reference), plate configuration #2, drug 0.1 μg/ml): red | Colour of media in each well (ID 5 to 8, T = 0 h (prior incubation, reference), plate configuration #2, drug 0.5 μg/ml): red
